Assay results as given in patent publication US20250057989A1, “TMEM-MCD IN THE MINIMALLY INVASIVE ASSESSMENT OF THE ACTIVITY STATUS OF TMEM IN ITS DISSEMINATION OF TUMOR CELLS” (Albert Einstein College of Medicine, priority 2018, published 2025).
“Also recorded” adds a separate entry of the source.

Experiments:
[1] = test system: tumor cells; conditions: mouse models of breast cancer; cited from earlier work
[2] = test system: TMEM function (CTCs); assay: Clinical trial NCT02824575: oral rebastinib to inhibit TMEM function (CTCs) in breast cancer patients; assay type: in vivo, human
[3] = test system: TMEM; assay: TMEM-MRI test (Uth) in PyMT mouse model, control vs rebastinib; assay type: in vivo; conditions: mice, FIGS. 2-3
Description: FIGS. 3A-3E. Evaluation of TMEM-MRI assay sensitivity and its values as a companion diagnostic is illustrated by using TMEM-MRI to detect the effect of the commercially available TMEM inhibitor Rebastinib in PyMT mouse model. FIG. 3A depicts a schematic illustration and cohort composition of the MMTV-PyMT Control vs Rebastinib (Ctrl-Reb) transplantation model. FIG. 3B is a chart depicting upper threshold ratio (Uth) of Ctrl-and rebastinib (Reb)-treated tumors. FIG. 3C depicts extravascular dextran assay, showing TMEM association with leaky (lower row), but no association of TMEM with non-leaky (upper row) blood vessel. FIG. 3D is a chart depicting the comparison between extravascular dextran leakiness between Ctrl and Reb-treated tumors. FIG. 3E is a chart depicting circulating tumor cells in mice treated with rebastinib or vehicle control. […]
A new assay for TMEM activity has been developed and validated. […] Using intravenously injected Gd-DTPA, in a dynamic and quantitative assessment allowing assessment of the change in tissue permeability induced by TMEM, with adequate temporal and spatial resolution, the permeability change associated with the TMEM occurrence can be measured with high spatial resolution. […] TMEM facilitated increase in tissue diffusion, measured using the apparent diffusion constant or using Diffusion Tensor Imaging (DTI) may also be developed to detect TMEM. […]

[4] = test system: circulating tumor cells; conditions: mice with breast cancer, chemotherapy-induced, oral administration; cited from earlier work
[5] = test system: TMEM; conditions: mice with breast cancer, oral administration; cited from earlier work

CNC(=O)c1cc(Oc2ccc(NC(=O)Nc3cc(C(C)(C)C)nn3-c3ccc4ncccc4c3)c(F)c2)ccn1 [rebastinib, 4-[4-[(5-tert-butyl-2-quinolin-6-ylpyrazol-3-yl)carbamoylamino]-3-fluorophenoxy]-N-methylpyridine-2-carboxamide]
dissemination of tumor cells [1]: prevents dissemination of tumor cells | tumor cell dissemination (CTCs) in patients [2]: prevents dissemination of tumor cells; also recorded: most patients achieved complete inhibition of tumor cell dissemination | TMEM activity detected by TMEM-MRI test [3]: inhibition of TMEM activity | cancer cell dissemination (circulating tumor cells in the blood, CTCs) [4]: inhibited | chemotherapy-induced TMEM activity (multiphoton imaging of the burst) [5]: inhibited
